Test [1] addresses T1, EPAC2 (Mus musculus, UniProt Q9EQZ6).
T1 sequence (Q9EQZ6 1-1011): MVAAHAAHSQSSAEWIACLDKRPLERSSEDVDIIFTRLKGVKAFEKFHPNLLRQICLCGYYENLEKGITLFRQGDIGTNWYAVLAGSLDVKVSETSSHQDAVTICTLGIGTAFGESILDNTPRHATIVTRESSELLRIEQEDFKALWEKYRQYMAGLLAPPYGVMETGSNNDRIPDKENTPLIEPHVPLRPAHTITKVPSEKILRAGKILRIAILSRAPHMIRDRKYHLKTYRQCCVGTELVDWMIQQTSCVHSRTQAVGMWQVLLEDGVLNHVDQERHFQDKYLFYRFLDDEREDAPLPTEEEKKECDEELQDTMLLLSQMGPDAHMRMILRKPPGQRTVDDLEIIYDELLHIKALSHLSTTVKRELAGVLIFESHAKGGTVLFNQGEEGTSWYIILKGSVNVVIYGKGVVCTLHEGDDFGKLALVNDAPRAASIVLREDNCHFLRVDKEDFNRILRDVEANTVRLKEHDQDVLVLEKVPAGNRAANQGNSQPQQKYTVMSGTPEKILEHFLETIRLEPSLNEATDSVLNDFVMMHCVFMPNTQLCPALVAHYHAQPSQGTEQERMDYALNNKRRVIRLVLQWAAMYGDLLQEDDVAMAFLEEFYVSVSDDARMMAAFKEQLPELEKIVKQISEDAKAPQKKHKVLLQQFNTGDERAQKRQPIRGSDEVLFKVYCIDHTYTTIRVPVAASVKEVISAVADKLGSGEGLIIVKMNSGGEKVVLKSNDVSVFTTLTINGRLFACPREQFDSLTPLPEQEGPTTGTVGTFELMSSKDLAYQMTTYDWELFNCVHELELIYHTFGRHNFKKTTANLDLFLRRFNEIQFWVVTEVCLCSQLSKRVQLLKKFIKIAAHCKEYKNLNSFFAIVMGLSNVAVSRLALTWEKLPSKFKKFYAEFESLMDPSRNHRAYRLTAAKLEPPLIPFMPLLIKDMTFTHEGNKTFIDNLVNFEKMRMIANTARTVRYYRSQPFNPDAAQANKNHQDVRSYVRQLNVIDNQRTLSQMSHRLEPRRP
The test can be described thus: 8-NBD-cAMP competition binding assay. The note with it: for Relative Potency (RA): RA = IC50, cAMP/ IC50, compound; for EPAC2 inhibitory activity (in words): 8-NBD-cAMP competition.

Test [2] has as its system type II PKA holoenzyme. Nature of the test: Counter screening assay, type II PKA holoenzyme kinase activity. It counts as biochemical. As to conditions: 25 µM compound, 0.1 mM cAMP.
Test [3] deals with type I PKA holoenzyme. The test can be described thus: Counter screening assay, type I PKA holoenzyme kinase activity. It counts as biochemical. As to conditions: 25 µM compound, 0.1 mM cAMP. (In general: The purpose of a counterscreen is to sort out artefacts and off-target activity.)

Structures can show the parent of a compound that is named as a salt.

Take `Cc1cc(C)c(S(=O)(=O)c2cc(C)c(C)cc2C)c(C)c1` [Compound 5a, 1,3,5-Trimethyl-2-(2,4,5-trimethylbenzenesulfonyl)benzene]: in test [1], the “Relative Potency (RA)” value is given as 57.1. Turning to `CCCCCc1ccc(S(=O)(=O)c2c(C)cc(C)cc2C)cc1` [Compound 5b, 1,3,5-Trimethyl-2-(4-pentylbenzenesulfonyl)benzene], in test [1], the IC50 (usually the concentration at which inhibition is half-maximal) was above 300 µM and the “Relative Potency (RA)” value is recorded as below 0.13. Take `Cc1cc(C)c(S(=O)(=O)c2ccc(C3CCCCC3)cc2)c(C)c1` [Compound 5c, 2-(4-Cyclohexylbenzenesulfonyl)-1,3,5-trimethylbenzene]: in test [1], the IC50 is above 300 µM and the “Relative Potency (RA)” value is listed as below 0.13.

Turning to `Cc1cc(C)c(S(=O)(=O)c2ccc(I)cc2)c(C)c1` [Compound 8a, 2-(4-Iodobenzenesulfonyl)-1,3,5-trimethylbenzene], the “Relative Potency (RA)” value in test [1] is 10. In the case of `COc1ccc(S(=O)(=O)c2c(C)cc(C)cc2C)cc1` [Compound 8b, 2-(4-Methoxybenzenesulfonyl)-1,3,5-trimethylbenzene], the “Relative Potency (RA)” value in test [1] is on record as 21.1.

For `Cc1cc(C)c(S(=O)(=O)c2ccc(-c3ccc(F)nc3)cc2)c(C)c1` [Compound 9, 2-Fluoro-5-[4-(2,4,6-trimethylbenzenesulfonyl)phenyl]pyridine], in test [1], the IC50 is above 300 µM and the “Relative Potency (RA)” value is listed as below 0.13.

For the compound `Cc1cc(C)c(S(=O)(=O)c2ccc(O)cc2)c(C)c1` [Compound 10, 4-(2,4,6-Trimethylbenzenesulfonyl)phenol], in test [1], the “Relative Potency (RA)” value was 3.0. For `Cc1cc(C)c(S(=O)(=O)c2ccc(OC3CCCCC3)cc2)c(C)c1` [Compound 11a, 2-(4-Cyclohexyloxybenzenesulfonyl)-1,3,5-trimethylbenzene], in test [1], the 50% inhibitory concentration (IC50) was above 300 µM and the “Relative Potency (RA)” value is below 0.13. In the case of `Cc1cc(C)c(S(=O)(=O)c2ccc(OC3CCN(C(=O)OC(C)(C)C)CC3)cc2)c(C)c1` [Compound 11b, 4-[4-(2,4,6-Trimethylbenzenesulfonyl)phenoxy]-piperidine-1-carboxylic acid tert-butyl ester], in test [1], the IC50 is above 300 µM and the “Relative Potency (RA)” value is below 0.13. For `Cc1cc(C)c(S(=O)(=O)c2ccc(OC3CCNCC3)cc2)c(C)c1` [Compound 11c, 4-[4-(2,4,6-Trimethylbenzenesulfonyl)phenoxy]piperidine], in test [1], the IC50 is above 300 µM and the “Relative Potency (RA)” value is listed as below 0.13. On to `Cc1cc(C)c(S(=O)(=O)c2ccc(OCCN)cc2)c(C)c1` [Compound 11d, 2-[4-(2,4,6-Trimethylbenzenesulfonyl)phenoxy]ethylamine], for which, in test [1], the IC50 was above 300 µM and the “Relative Potency (RA)” value was below 0.13. `Cc1ccc(Nc2c(C)cc(C)cc2C)cc1` [Compound 14a, p-Tolyl-(2,4,6-trimethylphenyl)amine]: in test [1], the “Relative Potency (RA)” value is listed as 10.5. Still for that read-out and setting: under `Cc1cc(C)c(Nc2cc(Cl)cc(Cl)c2)c(C)c1` [Compound 14b, (3,5-Dichlorophenyl)-(2,4,6-trimethylphenyl)amine] stands 44.4. For `Cc1cc(C)c(Nc2nc(C)c(C)s2)c(C)c1` [Compound 17, (4,5-Dimethylthiazol-2-yl)-(2,4,6-trimethylphenyl)amine], in test [1], the IC50 was above 300 µM, the “EPAC2 inhibitory activity (in words)” value is given as “no activity” and the “Relative Potency (RA)” value is reported as below 0.13. With `CCc1cccn1S(=O)(=O)c1ccc(C)cc1` [Compound 20b, 2-Ethyl-1-(toluene-4-sulfonyl)-1H-pyrrole], the “Relative Potency (RA)” value in test [1] is on record as 10. Regarding `CCc1cccn1S(=O)(=O)c1ccc(OC)cc1` [Compound 20c, 2-Ethyl-1-(4-methoxybenzenesulfonyl)-1H-pyrrole], the “Relative Potency (RA)” value in test [1] worked out at 5. In the case of `CCc1cccn1S(=O)(=O)c1ccc(C(F)(F)F)cc1` [Compound 20e, 2-Ethyl-1-(4-trifluoromethyl-benzenesulfonyl)-1H-pyrrole], in test [1], the IC50 was above 300 µM, the “EPAC2 inhibitory activity (in words)” value is on record as “dramatic loss of EPAC inhibitory activity” and the “Relative Potency (RA)” value is given as below 0.13. `CCc1cccn1S(=O)(=O)c1ccccc1C` [Compound 20f, 2-Ethyl-1-(toluene-2-sulfonyl)-1H-pyrrole]: the “Relative Potency (RA)” value in test [1] was found to be 7.5. Still for that read-out and setting: under `CCc1cccn1S(=O)(=O)c1cc(C)cc(C)c1` [Compound 20g, 1-(3,5-Dimethylbenzenesulfonyl)-2-ethyl-1H-pyrrole] stands 8.5. On the same count and under the same terms, under `CCc1cccn1S(=O)(=O)c1ccc(C)cc1C` [Compound 20h, 1-(2,4-Dimethylbenzenesulfonyl)-2-ethyl-1H-pyrrole] stands 30.8. Turning to `Cc1cc(C)c(S(=O)(=O)n2ccc3ccccc32)c(C)c1` [Compound 22a, 1-(2,4,6-Trimethylbenzenesulfonyl)-1H-indole], in test [1], the “EPAC2 inhibitory activity (in words)” value is on record as “almost retained activity” and the “Relative Potency (RA)” value amounted to 33.3.

In the case of `COC(=O)c1ccc2c(ccn2S(=O)(=O)c2c(C)cc(C)cc2C)c1` [Compound 22b, 1-(2,4,6-Trimethylbenzenesulfonyl)-1H-indole-5-carboxylic acid methyl ester], in test [1], the IC50 is above 300 µM, the “EPAC2 inhibitory activity (in words)” value is reported as “dramatic loss of activity” and the “Relative Potency (RA)” value is below 0.13. Take `Cc1cc(C)c(S(=O)(=O)n2ccc3cc(C(=O)O)ccc32)c(C)c1` [Compound 22c, 1-(2,4,6-Trimethylbenzenesulfonyl)-1H-indole-5-carboxylic acid]: in test [1], the “EPAC2 inhibitory activity (in words)” value is reported as “less active with a moderate potency” and the “Relative Potency (RA)” value is given as 3.7. For `Cc1cc(C)c(S(=O)(=O)n2ccc3ncccc32)c(C)c1` [Compound 24a, 1-(2,4,6-Trimethylbenzenesulfonyl)-1H-pyrrolo[3,2-b]pyridine], in test [1], the “Relative Potency (RA)” value is recorded as 10.5. Same read-out and setting: the value for `Cc1cc(C)c(S(=O)(=O)n2ccc3cnccc32)c(C)c1` [Compound 24b, 1-(2,4,6-Trimethylbenzenesulfonyl)-1H-pyrrolo[3,2-c]pyridine] was 4.5. As for `Cc1cc(C)c(S(=O)(=O)n2ccc3ccncc32)c(C)c1` [Compound 24c, 1-(2,4,6-Trimethylbenzenesulfonyl)-1H-pyrrolo[2,3-c]pyridine], the “Relative Potency (RA)” value in test [1] was 3.2. Regarding `Cc1cc(C)c(S(=O)(=O)n2ccc3cccnc32)c(C)c1` [Compound 24d, 1-(2,4,6-Trimethylbenzenesulfonyl)-1H-pyrrolo[2,3-b]pyridine], in test [1], the “EPAC2 inhibitory activity (in words)” value is reported as “almost retained activity” and the “Relative Potency (RA)” value was 16.7. For the compound `O=S(=O)(NCCNC/C=C/c1ccc(Br)cc1)c1cccc2cnccc12` [Compound H89, N-[2-[[3-(4-bromophenyl)-2-propenyl]amino]ethyl]-5-isoquinolinesulfonamide dihydrochloride, reference compound], the “Effect on cAMP-induced type II PKA holoenzyme activation” value in test [2] is reported as “blocked the type I or II PKA activities completely”. The “Effect on cAMP-induced type I PKA holoenzyme activation” value in test [3] is given as “blocked the type I or II PKA activities completely”.

For the origin of these results see paper PMC3574212 (Journal of medicinal chemistry, 2013).
